Test results: patent publication US9611252B2 (LifeSci Pharmaceuticals, Inc., priority 2013, dated 2017)
Read-outs that look alike come from different tables or passages of the source.

Key:
human Plasma Kallikrein = human Plasma Kallikrein (Homo sapiens (Human), UniProt P03952); test: In vitro enzyme inhibition of human plasma kallikrein (PFR-AMC cleavage); format: biochemical; settings: human plasma kallikrein, Pro-Phe-Arg-AMC substrate, 37° C.; read-out: hPK IC50
Outline: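 Compound pre-incubated with human plasma kallikrein 5 min at 37° C in 50 mM Tris-HCl pH 7.5, 150 mM NaCl, 0.01% Triton X-100. Reaction started with PFR-AMC, cleavage read kinetically at 37° C every 43 s for 1 h.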

kallikrein = kallikrein (Homo sapiens (Human), UniProt P03952); test: In vitro cellular assay (contact assay): kallikrein activity in ellagic acid-activated human plasma, substrate Z-FR-2-AMC; format: biochemical
Protocol: The ability of the compounds disclosed herein to inhibit cellular kallikrein activity was quantified and the respective EC50 value was determined.
All dilutions were prepared in an assay buffer comprising 50 mM Tris-HCl pH 7.2, 150 mM NaCl, and 0.01% Triton X-100.
The ten solutions of the test compounds, prepared by serial dilution, were further diluted 50-fold in the assay buffer.
Human plasma is thawed on ice and centrifuged for 15 min at 4° C. to remove platelets. A 1 mM stock solution of ellagic acid is diluted to 8 μM and mixed with human plasma, after removing platelets, at a ratio of 1:0.8.
A 22.5 μL volume of the final mixture of human plasma and ellagic acid was added to a 96-well microwell plate and the plate was incubated for 15 min at 37° C.
The CINH inhibitor at various concentrations, prepared by serial dilutions as described above, were added to the inhibitor control wells. […] Each CINH concentration is tested in duplicates.
The test compounds at various concentrations, also prepared by serial dilutions as described above, are added to the test wells. […] Each test compound concentration was tested in duplicates.
In addition to the inhibitor control and test wells, the 96 well assay plate includes positive control wells which contained the mixture of human plasma and ellagic acid without C1NH inhibitor or test compounds, and background wells which contained neither the mixture of human plasma and ellagic acid nor the test compounds. The total volume of liquid in positive control and background wells was brought up to 35 μL, using the assay buffer.
The assay plate containing C1NH inhibitors and test compounds mixed with human plasma and ellagic acid and appropriate controls was incubated at 37° C. for 5 min. […] The reagents were mixed well by shaking the plate gently for 30 sec.
The enzyme reaction was quantified by immediate kinetic reading of the assay plate using excitation/emission wavelengths of 330 nm/440 nm respectively. Fluorescence intensity was recorded for 60 min, using a time interval of 43 sec.
The inhibition activity of the test compounds were evaluated using the IC50 values, calculated according to the dose-response curve of the test compounds, fitted using the “log(inhibitor)-response (variable slope)” equation in GraphPadPrism software (GraphPad Software, Inc.).
The percentage inhibition was calculated using the following equation:
[formula] where, Mean(BG) is the average value of the fluorescence intensity of the background wells and Mean(PC) is the average value of the fluorescence intensity of the positive control wells.
Table 4 provides the EC50 values of various compounds disclosed herein.

[1] = human plasma activated with ellagic acid, Z-FR-2-AMC substrate, 37° C., read-out: Contact Assay EC50

Chain of kallikrein (P03952 20-638): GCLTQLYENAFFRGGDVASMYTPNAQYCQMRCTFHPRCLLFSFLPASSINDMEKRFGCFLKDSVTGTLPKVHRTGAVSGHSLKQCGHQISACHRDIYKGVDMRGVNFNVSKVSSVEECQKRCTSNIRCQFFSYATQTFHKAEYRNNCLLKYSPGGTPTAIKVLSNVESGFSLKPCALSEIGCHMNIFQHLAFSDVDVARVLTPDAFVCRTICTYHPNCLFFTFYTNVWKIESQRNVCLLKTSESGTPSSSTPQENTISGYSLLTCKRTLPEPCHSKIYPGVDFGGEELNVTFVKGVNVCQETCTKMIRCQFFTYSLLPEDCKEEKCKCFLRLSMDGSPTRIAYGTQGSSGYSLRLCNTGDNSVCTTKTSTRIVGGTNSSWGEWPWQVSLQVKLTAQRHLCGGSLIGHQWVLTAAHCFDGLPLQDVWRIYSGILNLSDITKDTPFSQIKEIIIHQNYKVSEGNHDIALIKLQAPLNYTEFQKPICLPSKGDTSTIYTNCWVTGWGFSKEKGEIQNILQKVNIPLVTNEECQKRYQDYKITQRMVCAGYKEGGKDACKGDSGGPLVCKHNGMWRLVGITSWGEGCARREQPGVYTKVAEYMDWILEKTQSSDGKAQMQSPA
Chain of human Plasma Kallikrein (P03952 20-638): as above

Molecule Cc1cnc2c(S(C)(=O)=O)cc(Cc3cc(C(=O)NCc4c(C)cc(N)nc4C)ccn3)cc2c1 [Example 15, N-((6-amino-2,4-dimethylpyridin-3-yl)methyl)-2-((3-methyl-8-(methylsulfonyl)quinolin-6-yl)methyl)isonicotinamide] has an IC50 (human Plasma Kallikrein) of under 100 nM and an EC50 (kallikrein; [1]) of under 100 nM.

Molecule Cc1cnc2c(S(C)(=O)=O)cc(Cc3cc(C(=O)NCc4ccc5c(N)nccc5c4)ccn3)cc2c1 [Example 16, N-((1-aminoisoquinolin-6-yl)methyl)-2-((3-methyl-8-(methylsulfonyl)quinolin-6-yl)methyl)isonicotinamide] has an IC50 (human Plasma Kallikrein) of under 100 nM and an EC50 (kallikrein; [1]) of under 100 nM.

Cc1cnc2c(S(C)(=O)=O)cc(Cc3cc(C(=O)NCc4cc5c(Cl)c[nH]c5cc4F)ccn3)cc2c1 [Example 17, N-((3-chloro-6-fluoro-1H-indol-5-yl)methyl)-2-((3-methyl-8-(methylsulfonyl)quinolin-6-yl)methyl)isonicotinamide] showed an IC50 (human Plasma Kallikrein) of under 100 nM and an EC50 (kallikrein; [1]) of under 100 nM.

For Cc1cnc2c(S(C)(=O)=O)cc(Cc3cc(C(=O)NCc4cc5cc[nH]c5cc4F)ccn3)cc2c1 [Example 18, N-((6-fluoro-1H-indol-5-yl)methyl)-2-((3-methyl-8-(methylsulfonyl)quinolin-6-yl)methyl)isonicotinamide], the IC50 (human Plasma Kallikrein) was under 100 nM and the EC50 (kallikrein; [1]) was 100 to 1000 nM.

For Cc1cnc2c(S(C)(=O)=O)cc(Cc3cc(C(=O)NCc4cnc5[nH]cc(Cl)c5c4)ccn3)cc2c1 [Example 19, N-((3-chloro-1H-pyrrolo[2,3-b]pyridin-5-yl)methyl)-2-((3-methyl-8-(methylsulfonyl)quinolin-6-yl)methyl)isonicotinamide], the IC50 (human Plasma Kallikrein) was under 100 nM and the EC50 (kallikrein; [1]) was under 100 nM.

Cc1cnc2c(S(C)(=O)=O)cc(Cc3cc(C(=O)NCc4n[nH]c5ccc(Cl)cc45)ccn3)cc2c1 [Example 20, N-((5-chloro-1H-indazol-3-yl)methyl)-2-((3-methyl-8-(methylsulfonyl)quinolin-6-yl)methyl)isonicotinamide] gave an IC50 (human Plasma Kallikrein) of under 100 nM and an EC50 (kallikrein; [1]) of under 100 nM.

Cc1cnc2c(S(C)(=O)=O)cc(Cc3cc(C(=O)NCc4ccc5[nH]cc(Cl)c5c4F)ccn3)cc2c1 [Example 21, N-((3-chloro-4-fluoro-1H-indol-5-yl)methyl)-2-((3-methyl-8-(methylsulfonyl)quinolin-6-yl)methyl)isonicotinamide] gave an IC50 (human Plasma Kallikrein) of under 100 nM and an EC50 (kallikrein; [1]) of under 100 nM.

Molecule Nc1nccc2cc(CNC(=O)c3ccnc(Cc4ccc5ncc(Cl)cc5c4)c3)ccc12 [Example 31, N-((1-aminoisoquinolin-6-yl)methyl)-2-((3-chloroquinolin-6-yl)methyl)isonicotinamide] has an IC50 (human Plasma Kallikrein) of under 100 nM and an EC50 (kallikrein; [1]) of under 100 nM.

O=C(NCc1cc2c(Cl)c[nH]c2cc1F)c1ccnc(Cc2ccc3ncc(Cl)cc3c2)c1 [Example 33, N-((3-chloro-6-fluoro-1H-indol-5-yl)methyl)-2-((3-chloroquinolin-6-yl)methyl)isonicotinamide] gave an IC50 (human Plasma Kallikrein) of under 100 nM and an EC50 (kallikrein; [1]) of 100 to 1000 nM.

Cc1nc(N)ccc1CNC(=O)c1ccnc(Cc2ccc3ncc(Cl)cc3c2)c1 [Example 34, N-((6-amino-2-methylpyridin-3-yl)methyl)-2-((3-chloroquinolin-6-yl)methyl)isonicotinamide] gave an IC50 (human Plasma Kallikrein) of under 100 nM and an EC50 (kallikrein; [1]) of under 100 nM.

Cc1cc(N)nc(C)c1CNC(=O)c1ccnc(Cc2ccc3ncc(Cl)cc3c2)c1 [Example 35, N-((6-amino-2,4-dimethylpyridin-3-yl)methyl)-2-((3-chloroquinolin-6-yl)methyl)isonicotinamide] gave an IC50 (human Plasma Kallikrein) of under 100 nM and an EC50 (kallikrein; [1]) of under 100 nM.

For O=C(NCc1cnc2[nH]cc(Cl)c2c1)c1ccnc(Cc2ccc3ncc(Cl)cc3c2)c1 [Example 38, N-(3-Chloro-1H-pyrrolo[2,3-b]pyridin-5-ylmethyl)-2-(3-chloro-quinolin-6-ylmethyl)-isonicotinamide], the IC50 (human Plasma Kallikrein) was under 100 nM and the EC50 (kallikrein; [1]) was 100 to 1000 nM.

With O=C(NCc1ccc2[nH]cc(Cl)c2c1F)c1ccnc(Cc2ccc3ncc(Cl)cc3c2)c1 [Example 40, N-(3-Chloro-4-fluoro-1H-indol-5-ylmethyl)-2-(3-chloro-quinolin-6-ylmethyl)-isonicotinamide] the IC50 (human Plasma Kallikrein) was under 100 nM and the EC50 (kallikrein; [1]) was 100 to 1000 nM.

Molecule Cc1nc(N)ccc1CNC(=O)c1ccnc(Cc2cc(C#N)c3ncc(Cl)cc3c2)c1 [Example 56, N-(6-amino-2-methyl-pyridin-3-ylmethyl)-2-(3-chloro-8-cyano-quinolin-6-ylmethyl)-isonicotinamide] has an EC50 (kallikrein) of 100 to 1000 nM.

N#Cc1cc(Cc2cc(C(=O)NCc3ccc4c(N)nccc4c3)ccn2)cc2cc(Cl)cnc12 [Example 57, N-(1-amino-isoquinolin-6-ylmethyl)-2-(3-chloro-8-cyano-quinolin-6-ylmethyl)-isonicotinamide] was tested, and the IC50 (human Plasma Kallikrein) was under 100 nM and the EC50 (kallikrein) was 100 to 1000 nM.

In the case of NC(=O)c1cc(Cc2cc(C(=O)NCc3cc4c(Cl)c[nH]c4cc3F)ccn2)cc2cc(Cl)cnc12 [Example 59, 3-chloro-6-((4-(((3-chloro-6-fluoro-1H-indol-5-yl)methyl)carbamoyl)pyridin-2-yl)methyl)quinoline-8-carboxamide], the IC50 (human Plasma Kallikrein) is reported as under 100 nM and the EC50 (kallikrein; [1]) is reported as 100 to 1000 nM.

NC(=O)c1cc(Cc2cc(C(=O)NCc3n[nH]c4ccc(Cl)cc34)ccn2)cc2cc(Cl)cnc12 [Example 60, 3-chloro-6-((4-(((5-chloro-1H-indazol-3-yl)methyl)carbamoyl)pyridin-2-yl)methyl)quinoline-8-carboxamide] was tested, and the IC50 (human Plasma Kallikrein) was under 100 nM and the EC50 (kallikrein; [1]) was 100 to 1000 nM.

NC(=O)c1cc(Cc2cc(C(=O)NCc3cnc4[nH]cc(Cl)c4c3)ccn2)cc2cc(Cl)cnc12 [Example 61, 3-chloro-6-((4-(((3-chloro-1H-pyrrolo[2,3-b]pyridin-5-yl)methyl)carbamoyl)pyridin-2-yl)methyl)quinoline-8-carboxamide] was tested, and the IC50 (human Plasma Kallikrein) was under 100 nM and the EC50 (kallikrein; [1]) was 100 to 1000 nM.

Work on Cc1nc(N)ccc1CNC(=O)c1ccnc(Cc2cc(C(N)=O)c3ncc(Cl)cc3c2)c1 [Example 62, 6-((4-(((6-amino-2-methylpyridin-3-yl)methyl)carbamoyl)pyridin-2-yl)methyl)-3-chloroquinoline-8-carboxamide] yielded an IC50 (human Plasma Kallikrein) of under 100 nM and an EC50 (kallikrein; [1]) of under 100 nM.

For NC(=O)c1cc(Cc2cc(C(=O)NCc3ccc4c(N)nccc4c3)ccn2)cc2cc(Cl)cnc12 [Example 64, 6-((4-(((1-aminoisoquinolin-6-yl)methyl)carbamoyl)pyridin-2-yl)methyl)-3-chloroquinoline-8-carboxamide], the IC50 (human Plasma Kallikrein) was under 100 nM and the EC50 (kallikrein; [1]) was under 100 nM.

NC(=O)c1cc(Cc2cc(C(=O)NCc3ccc4[nH]cc(Cl)c4c3F)ccn2)cc2cc(Cl)cnc12 [Example 65, 3-chloro-6-((4-(((3-chloro-4-fluoro-1H-indol-5-yl)methyl)carbamoyl)pyridin-2-yl)methyl)quinoline-8-carboxamide] gave an IC50 (human Plasma Kallikrein) of under 100 nM and an EC50 (kallikrein; [1]) of under 100 nM.

Work on NC(=O)c1cc(Cc2cc(C(=O)NCc3cc4cc[nH]c4cc3F)ccn2)cc2cc(Cl)cnc12 [Example 66, 3-chloro-6-((4-(((6-fluoro-1H-indol-5-yl)methyl)carbamoyl)pyridin-2-yl)methyl)quinoline-8-carboxamide] yielded an IC50 (human Plasma Kallikrein) of under 100 nM and an EC50 (kallikrein; [1]) of 100 to 1000 nM.

Cc1cc(N)nc(C)c1CNC(=O)c1ccnc(Cc2ccc3nccc(C#N)c3c2)c1 [Example 138, N-((6-amino-2,4-dimethylpyridin-3-yl)methyl)-2-((4-cyanoquinolin-6-yl)methyl)isonicotinamide] showed an IC50 (human Plasma Kallikrein) of under 100 nM.

Nc1nccc2cc(CNC(=O)c3ccnc(Cc4cnc5cc(Cl)ccc5c4)c3)ccc12 [Example 139, N-((1-aminoisoquinolin-6-yl)methyl)-2-((7-chloroquinolin-3-yl)methyl)isonicotinamide] was tested, and the IC50 (human Plasma Kallikrein) was under 100 nM.

Molecule O=C(NCc1cc2c(Cl)c[nH]c2cc1F)c1ccnc(Cc2cnc3cc(Cl)ccc3c2)c1 [Example 140, N-((3-chloro-6-fluoro-1H-indol-5-yl)methyl)-2-((7-chloroquinolin-3-yl)methyl)isonicotinamide] has an IC50 (human Plasma Kallikrein) of under 100 nM.

In the case of Cc1cc(N)nc(C)c1CNC(=O)c1ccnc(Cc2cnc3cc(Cl)ccc3c2)c1 [Example 141, N-((6-amino-2,4-dimethylpyridin-3-yl)methyl)-2-((7-chloroquinolin-3-yl)methyl)isonicotinamide], the IC50 (human Plasma Kallikrein) is reported as under 100 nM.

NCc1ccc2cc(Cc3cc(C(=O)NCc4ccc5c(N)nccc5c4)ccn3)ccc2n1 [Example 146, N-((1-aminoisoquinolin-6-yl)methyl)-2-((2-(aminomethyl)quinolin-6-yl)methyl)isonicotinamide] gave an IC50 (human Plasma Kallikrein) of 100 to 1000 nM.
